The record followed here is PubChem BioAssay (NCI).

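How tested: cells in 96-well plates exposed to compound for 48 hours at five concentrations. GI50 is the concentration that inhibits growth by half. TGI marks complete inhibition of growth.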

Some test systems named below: A498 renal; HT29 colon; OVCAR-4 ovarian; OVCAR-3 ovarian; CAKI-1 renal; K-562 leukemia; SN12C renal; A549 NSCLC; HL-60(TB) leukemia; DU-145 prostate.
Common to all, as to test: growth of human tumour cells (NCI), 48 h

Regarding `Cc1c(C(=O)CC(=O)C(=O)Nc2cccc(C(F)(F)F)c2)[n+](=O)c2ccccc2n1[O-]`, the TGI in the experiment with A498 renal was 35.8 µM; in the experiment with HT29 colon, 17.8 µM; in the experiment on OVCAR-4 ovarian, 13.3 µM; in the experiment on OVCAR-3 ovarian, 4.92 µM; with CAKI-1 renal, 21 µM; in the experiment with K-562 leukemia, 14.1 µM. The figures for the TGI in the experiment on SN12C renal, in the experiment with A549 NSCLC and in the experiment with HL-60(TB) leukemia were 11 µM, 32.1 µM and 7.65 µM, respectively.

Take `CC(C)(C)C(=O)C(c1ccc(-c2cscn2)cc1)c1ccc(-c2cscn2)cc1`: the TGI was 65.8 µM in the experiment on A498 renal; above 100 µM in the experiment on HT29 colon; 9.54 µM with OVCAR-4 ovarian; above 84.7 µM with OVCAR-3 ovarian; above 73.2 µM in the experiment with CAKI-1 renal; above 100 µM in the experiment with K-562 leukemia. The TGI in the experiment on SN12C renal, in the experiment on A549 NSCLC and in the experiment with HL-60(TB) leukemia was above 100 µM in each case.

Consider `Cc1cc2c(c(C#N)c1C)NC(=O)C(CC(=O)O)C2=O` (stereo not drawn), for which the TGI in the experiment on A498 renal, in the experiment on HT29 colon, in the experiment with OVCAR-4 ovarian, with OVCAR-3 ovarian, with CAKI-1 renal and in the experiment on K-562 leukemia was above 100 µM in each case. Moreover, the TGI with SN12C renal, with A549 NSCLC and with HL-60(TB) leukemia was above 100 µM throughout.

In the case of `Cc1cccc(C)c1NC(=O)C(=O)CC(=O)CO`, the TGI in the experiment with A498 renal, in the experiment on HT29 colon, with OVCAR-4 ovarian, with OVCAR-3 ovarian, in the experiment on CAKI-1 renal and in the experiment on K-562 leukemia was above 100 µM in each case. Moreover, the TGI with SN12C renal, in the experiment on A549 NSCLC and with HL-60(TB) leukemia was above 100 µM each time.

Regarding `C=CCN=C1N=C(CC(=O)OCC)CS1`, the TGI in the experiment on A498 renal, with HT29 colon, in the experiment with OVCAR-4 ovarian, with OVCAR-3 ovarian, in the experiment with CAKI-1 renal and with K-562 leukemia was above 100 µM each time. The TGI in the experiment on SN12C renal, in the experiment with A549 NSCLC and in the experiment with HL-60(TB) leukemia was above 100 µM each time.

Regarding `Cc1ccc(C2=Nc3ccccc3NC(=O)C2)cc1`, the TGI in the experiment on A498 renal, in the experiment with HT29 colon, with OVCAR-4 ovarian, in the experiment with OVCAR-3 ovarian, with CAKI-1 renal and with K-562 leukemia was above 100 µM throughout. For the same compound, the TGI with SN12C renal, in the experiment on A549 NSCLC and with HL-60(TB) leukemia was above 100 µM in each case.

As for `CNS(=O)(=O)NN(C)S(=O)(=O)c1ccc(Br)cc1`, the TGI with A498 renal, with HT29 colon, in the experiment with OVCAR-4 ovarian, with OVCAR-3 ovarian, in the experiment on CAKI-1 renal and in the experiment with K-562 leukemia was above 100 µM in each case. Besides, the TGI in the experiment with SN12C renal, in the experiment on A549 NSCLC and with HL-60(TB) leukemia was above 100 µM each time.

As to `Cc1cc(-c2nc3ccc(O)cc3s2)ccc1N`, the GI50 with A498 renal was 41.3 µM; in the experiment with HT29 colon, 37.5 µM; with DU-145 prostate, 34.1 µM; in the experiment with OVCAR-4 ovarian it was 37.2 µM; with OVCAR-3 ovarian, 39.3 µM; in the experiment on K-562 leukemia it was 36.4 µM. Further, the GI50 with SN12C renal was 39 µM; in the experiment on A549 NSCLC it was 34.5 µM. Besides, the TGI in the experiment on A498 renal, with HT29 colon, with DU-145 prostate, with OVCAR-4 ovarian, in the experiment with OVCAR-3 ovarian and in the experiment with CAKI-1 renal was above 100 µM in each case. For the same compound, the TGI in the experiment on K-562 leukemia, with SN12C renal and with A549 NSCLC was above 100 µM in each case.

With `O=C(Nc1ccc2oc(=O)c(C(=O)O)cc2c1)Oc1ccccc1`, the TGI in the experiment with A498 renal, in the experiment on HT29 colon, in the experiment with DU-145 prostate, with OVCAR-4 ovarian, in the experiment with OVCAR-3 ovarian and with CAKI-1 renal was above 100 µM in each case. Besides, the TGI in the experiment with K-562 leukemia, in the experiment on SN12C renal and in the experiment on A549 NSCLC was above 100 µM each time.

With `CCOC(=O)NC(=O)c1cn(CCCOC(=O)CCCCCCCCC(=O)OCCCn2cc(C(=O)NC(=O)OCC)c(=O)[nH]c2=O)c(=O)[nH]c1=O`, the TGI in the experiment with A498 renal was 67.5 µM; with HT29 colon, above 100 µM; in the experiment with OVCAR-4 ovarian, 30.7 µM; in the experiment with OVCAR-3 ovarian it was 34.8 µM; with CAKI-1 renal, 51.3 µM; in the experiment with K-562 leukemia, 49.8 µM. In addition, the TGI was above 100 µM with SN12C renal, above 100 µM in the experiment with A549 NSCLC and 26.4 µM in the experiment with HL-60(TB) leukemia.

In the case of `O=Cc1[nH]c2ccccc2c1Br`, the TGI with A498 renal was 33.6 µM; with HT29 colon, 58.6 µM; in the experiment on OVCAR-4 ovarian it was above 100 µM; in the experiment with OVCAR-3 ovarian it was 56.5 µM; in the experiment with CAKI-1 renal, above 100 µM; in the experiment on K-562 leukemia it was 47.4 µM. Besides, the values for the TGI with SN12C renal, in the experiment on A549 NSCLC and in the experiment on HL-60(TB) leukemia were 50.5 µM, above 100 µM and 51.8 µM, respectively.

Turning to `O=C(N/N=C/c1cc(Br)cc(Br)c1[O-])c1ccccc1O.O=C(N/N=C/c1cc(Br)cc(Br)c1[O-])c1ccccc1O.[Mn+2]`, the GI50 in the experiment on A498 renal is 12.8 µM; in the experiment with K-562 leukemia, 1.66 µM; with SN12C renal, 1.56 µM. The TGI with A498 renal turned out to be 50.1 µM; in the experiment with HT29 colon it was 22.3 µM; in the experiment with OVCAR-4 ovarian, 17.5 µM; with OVCAR-3 ovarian, 1.66 µM; with CAKI-1 renal, 11.9 µM; in the experiment on K-562 leukemia, 12.1 µM. Moreover, the values for the TGI in the experiment on SN12C renal, in the experiment with A549 NSCLC and in the experiment with HL-60(TB) leukemia were 16.5 µM, 25.5 µM and 2.81 µM, respectively.

Take `C=C1C(=O)O[C@@H]2C[C@@H](C)[C@@H]3[C@@H](OC4OC(COC(C)=O)C(O)C(O)C4O)CC(=O)[C@@]3(C)C[C@H]12` (stereo partly drawn): the TGI was determined as 30.1 µM in the experiment on A498 renal; 2.93 µM in the experiment on HT29 colon; 21.5 µM with DU-145 prostate; 12.5 µM with OVCAR-4 ovarian; 3.46 µM in the experiment with OVCAR-3 ovarian; 1.01 µM in the experiment with CAKI-1 renal. Moreover, the TGI with K-562 leukemia came to 3.78 µM; in the experiment with SN12C renal, 3.51 µM; in the experiment with A549 NSCLC it was 22.3 µM.
